Results from PubChem BioAssay (NCI).
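96-well plates; 48 h exposure; 5 concentrations. Endpoints by linear interpolation between flanking doses. Not reached: highest tested concentration assigned. GI50: concentration for 50% inhibition of growth. TGI: total growth inhibition.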

How the values were obtained:
Experiment in all cases: NCI anticancer screen, dose series, 48 h
CCRF-CEM leukemia = tested on: CCRF-CEM leukemia
HCC-2998 colon = tested on: HCC-2998 colon
HOP-62 NSCLC = tested on: HOP-62 NSCLC
LOX IMVI melanoma = tested on: LOX IMVI melanoma
NCI-H460 lung = tested on: NCI-H460 lung
OVCAR-8 ovarian = tested on: OVCAR-8 ovarian
SF-268 CNS = tested on: SF-268 CNS
SK-MEL-28 melanoma = tested on: SK-MEL-28 melanoma
SN12C renal = tested on: SN12C renal
U251 CNS = tested on: U251 CNS

SMILES | TGI (CCRF-CEM leukemia) [µM] | TGI (HCC-2998 colon) [µM] | TGI (HOP-62 NSCLC) [µM] | TGI (LOX IMVI melanoma) [µM] | TGI (NCI-H460 lung) [µM] | TGI (OVCAR-8 ovarian) [µM] | TGI (SF-268 CNS) [µM] | TGI (SK-MEL-28 melanoma) [µM] | TGI (SN12C renal) [µM] | TGI (U251 CNS) [µM] | GI50 (CCRF-CEM leukemia) [µM] | GI50 (HCC-2998 colon) [µM] | GI50 (HOP-62 NSCLC) [µM] | GI50 (LOX IMVI melanoma) [µM] | GI50 (NCI-H460 lung) [µM] | GI50 (OVCAR-8 ovarian) [µM] | GI50 (SF-268 CNS) [µM] | GI50 (SK-MEL-28 melanoma) [µM] | GI50 (SN12C renal) [µM] | GI50 (U251 CNS) [µM]
O=C1c2cccc3cc([N+](=O)[O-])cc(c23)C(=O)N1NC1=NCCN1 | > 100 | > 100 | > 100 | > 100 | > 100 | > 100 | > 100 | > 100 | > 100 | > 100 |  |  |  |  |  |  |  |  |  | 
CC(C)N(C(=O)C12C3C4C5C3C1(C(=O)N(C(C)C)C(C)C)C5(C#N)C42)C(C)C (stereo unspecified) | 51.6 | > 100 | > 100 | 47.2 | > 100 | > 100 | > 100 | > 100 | > 100 | > 100 |  |  |  |  |  |  |  |  |  | 
O=C(/C=C/c1ccccc1)c1c[nH]c2ccccc2c1=O | 9.97 | 9.48 | 12.2 | 12 | 5.09 | 6.82 | 10.3 | 19.4 | 15.5 | 11 | 2.88 | 2.85 | 3.5 | 2.88 | 2.06 | 2.23 | 2.81 | 6.53 | 3.54 | 2.29
Cc1csc(/C=N/NC(=O)c2nnn(-c3ccnc4c(C(F)(F)F)cccc34)c2C)c1 | > 100 | > 100 | > 100 | > 100 | > 100 | > 100 | > 100 | > 100 | > 100 | > 100 | 56.8 | > 100 | 63.5 | 72.2 | > 100 | 74.1 | > 100 | > 100 | 71.4 | 22.3
Nc1ncnc2c1ncn2C1OC(CSC(F)(F)F)C(O)C1O (stereo unspecified) | > 100 | > 100 | > 100 | > 100 | > 100 | > 100 | > 100 | > 100 | > 100 | > 100 |  |  |  |  |  |  |  |  |  | 
CC[C@@]1(OC(=O)CN)C(=O)OCc2c1cc1n(c2=O)Cc2cc3cc4c(cc3nc2-1)OCO4 |  | 1.38 | < 0.0495 | 0.119 | 0.0238 | 0.13 |  | 10.8 | 0.563 | 0.202 | < 0.01 | 0.0171 | < 0.01 | < 0.01 | < 0.01 | < 0.01 | < 0.01 | 0.209 | < 0.01 | < 0.01
COc1cccc(C(=O)Nc2ccc(CN3CCc4nc5cc(OC)c(OC)cc5cc43)cc2)c1 | 36.5 | 18.5 | 37.8 | 6.5 | 8.71 | > 100 | > 100 | > 100 | 16.4 | 12.7 | 3.35 | 4.81 | 13.5 | 2.37 | 2.84 | 3.88 | 6.51 | 7.15 | 3.9 | 3.17
N#CC(C#N)=Cc1c(-c2ccccc2)[nH]c2ccccc12 | 43.8 | 35.9 | 55.2 | > 47.3 | > 39.8 | > 90.2 | > 46.2 | > 45.8 | > 73.3 | 28 | 2.41 | 10.4 | 11.2 | 3.27 | 2.02 | 5.75 | 8.81 | 3.57 | 5.82 | 1.18
N=CCCN(CCC=N)c1ccc(/C=C2\CN(NC(=O)c3ccc(Cl)cc3)C(c3ccccc3)=N2)cc1 | > 100 | > 100 | > 100 | > 100 | > 100 | > 100 | > 100 | > 100 | > 100 | 76.1 |  |  |  |  |  |  |  |  |  | 
O=S(=O)(Nc1cc(Br)c(O)c2ccccc12)c1ccc(F)cc1 | 8.29 | 33.4 | 18.5 | 4.88 | 38.7 | 7.87 | 12.1 | 5.39 | 4.36 | 7.77 | 0.76 | 18.4 | 3.58 | 2.07 | 18.3 | 2.78 | 3.2 | 2.46 | 2.04 | 2.96
N#CCCN(CCC#N)C(=O)c1cccc(C(=O)N(CCC#N)CCC#N)c1 | > 100 | > 100 | > 100 | 30.3 | > 64.8 | > 69.1 | > 100 |  | > 58.3 | > 59.4 |  |  |  |  |  |  |  |  |  | 
C=C[C@@]1(C)CCC2(O)C(CCC3C2(C)CCC[C@@]3(C)COC(=O)CC(=O)OC)C1 (stereo partly specified) | > 100 | > 100 | 34 | 31.1 | > 100 | 55 | 55.3 | 30.9 | 38.2 | 32.2 |  |  |  |  |  |  |  |  |  | 
CC1=CCC2(C#N)CCC1C2O (stereo unspecified) | > 100 | > 100 | > 100 | > 100 | > 100 | > 100 | > 100 | > 100 | > 100 | > 100 |  |  |  |  |  |  |  |  |  | 
COc1cc(/C=N/Nc2ncnc3c2cnn3C(C)C)ccc1O | > 23.1 | > 25 | > 25 | > 13.7 | > 25 | > 25 | > 22.8 | > 25 | > 25 | > 25 | 8.07 | 17.3 | 6.5 | 3.79 | 8.34 | 6.37 | 7.68 | 8.08 | 8.27 | 8.11
Cc1nc2ccccc2c(=O)n1/N=C(\N=Nc1cc(Cl)ccc1Cl)c1cccc(-c2ccco2)c1 | > 10 | > 100 | > 100 | > 100 | > 100 | > 100 | > 100 | > 100 | > 100 | > 100 |  |  |  |  |  |  |  |  |  | 
O=C(c1ccccc1)C(c1ccccc1)C1(O)C(=O)Nc2ccccc21 (stereo unspecified) | > 100 | > 100 | > 100 | > 100 | > 100 | > 100 | > 100 | > 100 | > 100 |  |  |  |  |  |  |  |  |  |  | 
